Laboratory results from patent US20240041042A1, “1-(PYRIDYL)-5-AZINYLPYRAZOLE DERIVATIVES, AND THEIR USE FOR CONTROL OF UNDESIRED PLANT GROWTH” (Bayer Aktiengesellschaft, priority 2020, published 2024).
Like-named read-outs stand apart in the source and are kept apart here.

Key:
Format in all cases: in vivo
[1] = tested on: Alopecurus myosuroides (ALOMY); assay: Pre-emergence herbicidal action against ALOMY; settings: scored visually after about 3 weeks, 100% = plants have died
Procedure, shortened: (§1)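 Pre-emergence soil-surface spray, WP/EC formulation, 0.5% additive, 600 l/ha water, rates of 320 g/ha or lower. Greenhouse, ~3 wk. Visual score, % of untreated control (100% = plants dead, 0% = like control).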

[2] = tested on: Amaranthus retroflexus (AMARE); assay: Pre-emergence herbicidal action against AMARE; settings: visual scoring after about 3 weeks vs untreated controls
Procedure, shortened: as §1

[3] = tested on: Avena fatua (AVEFA); assay: Pre-emergence herbicidal action against AVEFA; settings: 320 g/ha, visual scoring after about 3 weeks vs untreated controls
Procedure, shortened: as §1

[4] = tested on: Echinochloa crus-galli (ECHCG); assay: Pre-emergence herbicidal action against ECHCG
Procedure, shortened: as §1

[5] = tested on: Lolium rigidum (LOLRI); assay: Pre-emergence herbicidal action against LOLRI
Procedure, shortened: as §1

[6] = tested on: Matricaria inodora (MATIN); assay: Pre-emergence herbicidal action against MATIN
Procedure, shortened: as §1

[7] = tested on: Pharbitis purpurea (PHBPU); assay: Pre-emergence herbicidal action against PHBPU; settings: dosage 320 g/ha
Procedure, shortened: as §1

[8] = tested on: Polygonum convolvulus (POLCO); assay: Pre-emergence herbicidal action against POLCO
Procedure, shortened: as §1

[9] = tested on: Setaria viridis (SETVI); assay: Pre-emergence herbicidal action against SETVI
Procedure, shortened: as §1

[10] = tested on: Verconica persica (VERPE); assay: Pre-emergence herbicidal action against VERPE
Procedure, shortened: as §1

[11] = tested on: Viola tricolor (VIOTR); assay: Pre-emergence herbicidal action against VIOTR
Procedure, shortened: as §1

[12] = tested on: Alopecurus myosuroides (ALOMY); assay: Post-emergence herbicidal action against ALOMY; settings: visual rating about 3 weeks after treatment vs untreated controls (100% = plants have died, 0% = like control plants)
Procedure, shortened: (§2)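 Post-emergence greenhouse spray, one-leaf stage, 600 l/ha water plus 0.5% additive; WP or EC formulations; application rates 320 g/ha or lower. Visual % damage vs untreated controls at ~3 weeks.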

[13] = tested on: Amaranthus retroflexus (AMARE); assay: Post-emergence herbicidal action against AMARE
Procedure, shortened: as §2

[14] = tested on: Avena fatua (AVEFA); assay: Post-emergence herbicidal action against AVEFA; settings: visual rating about 3 weeks after treatment
Procedure, shortened: as §2

[15] = tested on: Echinochloa crus-galli (ECHCG); assay: Post-emergence herbicidal action against ECHCG
Procedure, shortened: as §2

[16] = tested on: Matricaria inodora (MATIN); assay: Post-emergence herbicidal action against MATIN; settings: dosage 80 g/ha
Procedure, shortened: as §2

[17] = tested on: Pharbitis purpurea (PHBPU); assay: Post-emergence herbicidal action against PHBPU
Procedure, shortened: as §2

[18] = tested on: Setaria viridis (SETVI); assay: Post-emergence herbicidal action against SETVI
Procedure, shortened: as §2

[19] = tested on: Verconica persica (VERPE); assay: Post-emergence herbicidal action against VERPE
Procedure, shortened: as §2

[20] = tested on: Viola tricolor (VIOTR); assay: Post-emergence herbicidal action against VIOTR
Procedure, shortened: as §2

[21] = tested on: Oryza sativa (ORYSA); settings: crop plant compatibility
Procedure, shortened: (§3)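 Test crops were treated 2 to 3 weeks after sowing, once they reached one leaf, by spraying compound in water with 0.5% additive at 600 l/ha. Visual scoring compared them with untreated controls roughly 3 weeks on, and appendices a, b and c denote different doses.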

[22] = tested on: Triticum aestivum (TRZAS); settings: crop plant compatibility, effect vs untreated controls
Procedure, shortened: as §3

[23] = tested on: Zea mays (ZEAMX); settings: for Post-emergence action against ZEAMX in % (crop plant compatibility): 20 g/ha, effect in comparison to untreated controls; for Post-emergence action against ZEAMX in %: crop plant compatibility, effect vs untreated controls
Procedure, shortened: as §3

[24] = tested on: Polygonum convolvulus (POLCO); assay: Post-emergence herbicidal action against POLCO
Procedure, shortened: as §2

[25] = tested on: Abutilon theophrasti (ABUTH); assay: Post-emergence herbicidal action against ABUTH; settings: 320 g/ha, visual rating about 3 weeks after treatment vs untreated controls (100% = plants have died, 0% = like control plants)
Procedure, shortened: as §2

[26] = tested on: Lolium rigidum (LOLRI); assay: Post-emergence herbicidal action against LOLRI; settings: dosage 320 g/ha
Procedure, shortened: as §2

[27] = 80 g/ha, visual rating about 3 weeks after treatment vs untreated controls (100% = plants have died, 0% = like control plants)
[28] = 20 g/ha, effect vs untreated controls
[29] = 320 g/ha, visual rating about 3 weeks after treatment
[30] = 80 g/ha, effect in comparison to untreated controls
[31] = 320 g/ha, effect in comparison to untreated controls

CCOC(=O)COc1nn(-c2ncccc2F)c(-c2ccc(F)nc2)c1Br [Example I-51]
Pre-emergence action against ALOMY ([1]; 80 g/ha): 90% | Pre-emergence action against ALOMY ([1]; 320 g/ha): 100% | Pre-emergence action against AMARE in % ([2]; 80 g/ha): 100% | Pre-emergence action against AMARE in % ([2]; 320 g/ha): 100% | Pre-emergence action against AVEFA in % [3]: 90% | Pre-emergence action against ECHCG in % ([4]; dosage 80 g/ha): 80% | Pre-emergence action against ECHCG in % ([4]; dosage 320 g/ha): 90% | Pre-emergence action against LOLRI in % ([5]; dosage 320 g/ha): 90% | Pre-emergence action against MATIN in % ([6]; dosage 80 g/ha): 90% | Pre-emergence action against MATIN in % ([6]; dosage 320 g/ha): 90% | Pre-emergence action against PHBPU in % [7]: 90% | Pre-emergence action against POLCO in % ([8]; dosage 80 g/ha): 80% | Pre-emergence action against POLCO in % ([8]; dosage 320 g/ha): 90% | Pre-emergence action against SETVI in % ([9]; dosage 80 g/ha): 90% | Pre-emergence action against SETVI in % ([9]; dosage 320 g/ha): 100% | Pre-emergence action against VERPE in % ([10]; dosage 80 g/ha): 100% | Pre-emergence action against VERPE in % ([10]; dosage 320 g/ha): 100% | Pre-emergence action against VIOTR in % ([11]; 320 g/ha, Viola tricolor): 100% | Pre-emergence action against VIOTR in % ([11]; dosage 80 g/ha): 100% | Post-emergence action against ALOMY in % ([12]; 80 g/ha): 90% | Post-emergence action against AMARE in % [13, 27]: 90% | Post-emergence action against AVEFA in % ([14]; 80 g/ha): 90% | Post-emergence action against ECHCG in % ([15]; dosage 80 g/ha): 90% | Post-emergence action against MATIN in % [16]: 80% | Post-emergence action against PHBPU in % ([17]; dosage 80 g/ha): 90% | Post-emergence action against SETVI in % ([18]; dosage 80 g/ha): 90% | Post-emergence action against VERPE in % ([19]; dosage 80 g/ha): 80% | Post-emergence action against VIOTR in % ([20]; 80 g/ha): 80% | Post-emergence action against ORYSA in % [21, 28]: 20% | Post-emergence action against TRZAS in % ([22]; 20 g/ha): 20% | Post-emergence action against ZEAMX in % (crop plant compatibility) [23]: 20%

CS(=O)(=O)NC(=O)COc1nn(-c2ncccc2F)c(-c2ccc(F)nc2)c1Br [Example I-44]
Pre-emergence action against ALOMY ([1]; 80 g/ha): 100% | Pre-emergence action against ALOMY ([1]; 320 g/ha): 100% | Pre-emergence action against AMARE in % ([2]; 80 g/ha): 80% | Pre-emergence action against AMARE in % ([2]; 320 g/ha): 90% | Pre-emergence action against AVEFA in % [3]: 90% | Pre-emergence action against ECHCG in % ([4]; dosage 80 g/ha): 80% | Pre-emergence action against ECHCG in % ([4]; dosage 320 g/ha): 100% | Pre-emergence action against LOLRI in % ([5]; dosage 80 g/ha): 80% | Pre-emergence action against LOLRI in % ([5]; dosage 320 g/ha): 100% | Pre-emergence action against MATIN in % ([6]; dosage 320 g/ha): 90% | Pre-emergence action against POLCO in % ([8]; dosage 80 g/ha): 90% | Pre-emergence action against POLCO in % ([8]; dosage 320 g/ha): 90% | Pre-emergence action against SETVI in % ([9]; dosage 80 g/ha): 90% | Pre-emergence action against SETVI in % ([9]; dosage 320 g/ha): 100% | Pre-emergence action against VERPE in % ([10]; dosage 320 g/ha): 80% | Pre-emergence action against VIOTR in % ([11]; 320 g/ha, Viola tricolor): 100% | Pre-emergence action against VIOTR in % ([11]; dosage 80 g/ha): 100% | Post-emergence action against ALOMY in % ([12]; 80 g/ha): 80% | Post-emergence action against AMARE in % [13, 27]: 80% | Post-emergence action against AVEFA in % ([14]; 80 g/ha): 90% | Post-emergence action against POLCO in % ([24]; dosage 80 g/ha): 90% | Post-emergence action against VERPE in % ([19]; dosage 80 g/ha): 80% | Post-emergence action against ORYSA in % [21, 28]: 20% | Post-emergence action against TRZAS in % ([22]; 20 g/ha): 20% | Post-emergence action against ZEAMX in % (crop plant compatibility) [23]: 0% | Post-emergence action against ZEAMX in % ([23]; 80 g/ha): 10%

CCOC(=O)COc1nn(-c2ncccc2F)c(-c2ccnc(F)c2)c1I [Example I-137]
Post-emergence action against ABUTH in % [25]: 80% | Post-emergence action against ALOMY in % ([12]; 320 g/ha): 80% | Post-emergence action against AMARE in % [13, 29]: 80% | Post-emergence action against ECHCG in % ([15]; dosage 320 g/ha): 80% | Post-emergence action against LOLRI in % [26]: 90% | Post-emergence action against POLCO in % ([24]; dosage 80 g/ha): 80% | Post-emergence action against POLCO in % ([24]; dosage 320 g/ha): 80% | Post-emergence action against VERPE in % ([19]; 320 g/ha, VERPE): 80% | Post-emergence action against VIOTR in % ([20]; 80 g/ha): 80% | Post-emergence action against VIOTR in % ([20]; 320 g/ha): 80% | Post-emergence action against ORYSA in % [21, 28]: 0% | Post-emergence action against ORYSA in % [21, 30]: 10% | Post-emergence action against ORYSA in % [21, 31]: 20% | Post-emergence action against TRZAS in % ([22]; 20 g/ha): 20% | Post-emergence action against TRZAS in % ([22]; 80 g/ha): 20% | Post-emergence action against ZEAMX in % (crop plant compatibility) [23]: 0% | Post-emergence action against ZEAMX in % ([23]; 80 g/ha): 0% | Post-emergence action against ZEAMX in % ([23]; 320 g/ha): 20%

COCCOC(=O)COc1nn(-c2cccnc2C)c(-c2cncc(F)c2)c1Br [II-40]
Post-emergence action against ABUTH in % [25]: 80% | Post-emergence action against ALOMY in % ([12]; 320 g/ha): 90% | Post-emergence action against AMARE in % [13, 29]: 80% | Post-emergence action against AVEFA in % ([14]; 320 g/ha): 90% | Post-emergence action against ECHCG in % ([15]; dosage 320 g/ha): 90% | Post-emergence action against PHBPU in % ([17]; dosage 320 g/ha): 80% | Post-emergence action against POLCO in % ([24]; dosage 80 g/ha): 80% | Post-emergence action against POLCO in % ([24]; dosage 320 g/ha): 80% | Post-emergence action against SETVI in % ([18]; dosage 320 g/ha): 90% | Post-emergence action against VERPE in % ([19]; 320 g/ha, VERPE): 90% | Post-emergence action against VERPE in % ([19]; dosage 80 g/ha): 80% | Post-emergence action against VIOTR in % ([20]; 80 g/ha): 90% | Post-emergence action against VIOTR in % ([20]; 320 g/ha): 90% | Post-emergence action against ORYSA in % [21, 28]: 0% | Post-emergence action against ORYSA in % [21, 30]: 0% | Post-emergence action against ORYSA in % [21, 31]: 0% | Post-emergence action against TRZAS in % ([22]; 20 g/ha): 0% | Post-emergence action against TRZAS in % ([22]; 80 g/ha): 20% | Post-emergence action against ZEAMX in % (crop plant compatibility) [23]: 0% | Post-emergence action against ZEAMX in % ([23]; 80 g/ha): 0% | Post-emergence action against ZEAMX in % ([23]; 320 g/ha): 10%
